Reference: patent EP3708565A1, “PYRIMIDINYLOXYPHENYLAMIDINES AND THE USE THEREOF AS FUNGICIDES” (Bayer AG, priority 2020, dated 2020)

Key:
Phakospora pachyrhizi = assay: in vivo preventive test on Phakospora pachyrhizi (soybean rust); details: for pest or weed control at 500 ppm: Glycine max, 288 h, 500 ppm of active ingredient, young soybean plants sprayed, inoculated after 24 hours, evaluated 12 days after the inoculation, read-out: efficacy; for efficacy: 500 ppm
Method: Example: in vivo preventive test on Phakospora pachyrhizi (soybean rust)
(§1) The active ingredients were made soluble and homogenized in a mixture of Dimethyl sulfoxide/Acetone/ /Tween® 80 and then diluted in water to the desired concentration.
The young plants of soybean were treated by spraying the active ingredient prepared as described above. Control plants were treated only with an aqueous solution of Acetone/Dimethyl sulfoxide/ […].
After 24 hours, the plants were contaminated by spraying the leaves with an aqueous suspension of Phakosporapachyrhizi spores. The contaminated soybean plants were incubated for 24 hours at 24°C and at 100% relative humidity and then for 11 days at 24°C and at 70-80% relative humidity.
The test was evaluated 12 days after the inoculation. 0% means an efficacy which corresponds to that of the control plants while an efficacy of 100% means that no disease was observed.

Puccinia recondita = assay: in vivo preventive test on Puccinia recondita (brown rust on wheat); details: for pest or weed control at 500 ppm: Puccinia recondita, 264 h, 500 ppm of active ingredient, young wheat plants sprayed, inoculated after 24 hours, evaluated 11 days after the inoculation, read-out: efficacy; for efficacy: 500 ppm
Method: Example: in vivo preventive test on Puccinia recondita (brown rust on wheat)
as §1
The young plants of wheat were treated by spraying the active ingredient prepared as described above. Control plants were treated only with an aqueous solution of Acetone/Dimethyl sulfoxide/ Tween® 80.
After 24 hours, the plants were contaminated by spraying the leaves with an aqueous suspension of Puccinia recondita spores. The contaminated wheat plants were incubated for 24 hours at 20°C and at 100% relative humidity and then for 10 days at 20°C and at 70-80% relative humidity.
The test was evaluated 11 days after the inoculation. 0% means an efficacy which corresponds to that of the control plants while an efficacy of 100% means that no disease was observed.

Sphaerotheca fuliginea = assay: in vivo preventive test on Sphaerotheca fuliginea (powdery mildew on cucurbits); details: 500 ppm of active ingredient, young gherkin plants sprayed, inoculated after 24 hours, evaluated 8 days after the inoculation; for pest or weed control at 500 ppm: Podosphaera fuliginea, 192 h, read-out: efficacy
Method: Example: in vivo preventive test on Sphaerotheca fuliginea (powdery mildew on cucurbits)
as §1
The young plants of gherkin were treated by spraying the active ingredient prepared as described above. Control plants were treated only with an aqueous solution of Acetone/Dimethyl sulfoxide/ […].
After 24 hours, the plants were contaminated by spraying the leaves with an aqueous suspension of Sphaerotheca fuliginea spores. The contaminated gherkin plants were incubated for 8 days at 20°C and at 70-80% relative humidity.
The test was evaluated 8 days after the inoculation. 0% means an efficacy which corresponds to that of the control plants while an efficacy of 100% means that no disease was observed.

[1] = LogP measurement by HPLC on reversed phase columns (EEC directive 79/831 Annex V.A8); assay type: physicochemical
Method: If more than one LogP value is available within the same method, all the values are given and separated by "+".
Lambda-max-values were determined using UV-spectra from 200 nm to 400 nm and the peak values of the chromatographic signals.

[2] = reversed phase HPLC column, method [a]: LC-UV, acidic range, 0.1% formic acid in water and acetonitrile as eluent
[3] = reversed phase HPLC column, method [b]: LC-UV, neutral range, 0.001 molar ammonium acetate solution in water and acetonitrile as eluent
[4] = method [a]: LC-UV, acidic range, 0.1% formic acid in water and acetonitrile as eluent
[5] = method [b]: LC-UV, neutral range, 0.001 molar ammonium acetate solution in water and acetonitrile as eluent

SMILES | chromatographic logP [1, 2] | chromatographic logP [1, 3] | chromatographic logP [1, 4] | chromatographic logP [1, 5] | pest or weed control at 500 ppm (Phakospora pachyrhizi) | pest or weed control at 500 ppm (Puccinia recondita) | pest or weed control at 500 ppm (Sphaerotheca fuliginea) | efficacy (Phakospora pachyrhizi) | efficacy (Puccinia recondita) | efficacy (Sphaerotheca fuliginea)
CCN(C)C=Nc1cc(C)c(Oc2ccnc(SC3CCCC3)n2)cc1C [I.012, N'-[4-(2-cyclopentylsulfanylpyrimidin-4-yl)oxy-2,5-dimethylphenyl]-N-ethyl-N-methylmethan-imidamide] | 1.75 | – | – | – | ≥ 70% | ≥ 70% | ≥ 70% | – | – | –
CCN(C)C=Nc1cc(C)c(Oc2ccnc(SCCC(F)(F)F)n2)cc1C [I.013, N'-[2,5-dimethyl-4-[2-(3,3,3-trifluoropropylsulfanyl)pyrimidin-4-yl]oxyphenyl]-N-ethyl-N-methylmethanimidamide] | 1.58 | – | – | – | ≥ 70% | ≥ 70% | ≥ 70% | – | – | –
CCN(C)C=Nc1cc(Br)c(Oc2ccnc(SC(C)C)n2)cc1C [I.014, N'-[5-bromo-2-methyl-4-(2-propan-2-ylsulfanylpyrimidin-4-yl)oxyphenyl]-N-ethyl-N-methyl-methanimidamide] | 1.6 | 4.78 | – | – | ≥ 70% | ≥ 70% | ≥ 70% | – | – | –
CCCSc1nccc(Oc2cc(C)c(N=CN(C)CC)cc2Br)n1 [I.015, N'-[5-bromo-2-methyl-4-(2-propylsulfanylpyrimidin-4-yl)oxyphenyl]-N-ethyl-N-methylmethan-imidamide] | 1.66 | 4.86 | – | – | ≥ 70% | ≥ 70% | ≥ 70% | – | – | –
CCSc1nccc(Oc2cc(C)c(N=CN(C)CC)cc2Br)n1 [I.016, N'-[5-bromo-4-(2-ethylsulfanylpyrimidin-4-yl)oxy-2-methylphenyl]-N-ethyl-N-methylmethan-imidamide] | 1.46 | 4.44 | – | – | ≥ 70% | ≥ 70% | ≥ 70% | – | – | –
CCN(C)C=Nc1cc(Br)c(Oc2ccnc(C(F)(F)F)n2)cc1C [I.017, N'-[5-bromo-2-methyl-4-[2-(trifluoromethyl)pyrimidin-4-yl]oxyphenyl]-N-ethyl-N-methyl-methanimidamide] | 1.32 | 4.08 | – | – | ≥ 70% | ≥ 70% | ≥ 70% | – | – | –
CCN(C)C=Nc1cc(Br)c(Oc2cc(SC(C)(C)C)nc(C)n2)cc1C [I.018, N'-[5-bromo-4-(6-tert-butylsulfanyl-2-methylpyrimidin-4-yl)oxy-2-methylphenyl]-N-ethyl-N-methylmethanimidamide] | 2.11 | 5.99 | – | – | ≥ 70% | ≥ 70% | ≥ 70% | – | – | –
CCSc1nc(C)cc(Oc2cc(C)c(N=CN(C)CC)cc2C)n1 [I.019, N-ethyl-N'-[4-(2-ethylsulfanyl-6-methylpyrimidin-4-yl)oxy-2,5-dimethylphenyl]-N-methyl-methanimidamide] | 1.52 | – | – | – | ≥ 70% | ≥ 70% | ≥ 70% | – | – | –

Now from value to compound, other results behind:

chromatographic logP [1, 2] | chromatographic logP [1, 3] | chromatographic logP [1, 4] | chromatographic logP [1, 5] | SMILES | pest or weed control at 500 ppm (Phakospora pachyrhizi) | pest or weed control at 500 ppm (Puccinia recondita) | pest or weed control at 500 ppm (Sphaerotheca fuliginea) | efficacy (Phakospora pachyrhizi) | efficacy (Puccinia recondita) | efficacy (Sphaerotheca fuliginea)
1.69 | – | – | – | CCCSc1nc(C)cc(Oc2cc(C)c(N=CN(C)CC)cc2C)n1 [I.020, N'-[2,5-dimethyl-4-(6-methyl-2-propylsulfanylpyrimidin-4-yl)oxyphenyl]-N-ethyl-N-methyl-methanimidamide] | ≥ 70% | ≥ 70% | ≥ 70% | – | – | –
1.84 | – | – | – | CCN(C)C=Nc1cc(C)c(Oc2cc(C)nc(SCC(C)C)n2)cc1C [I.021, N'-[2,5-dimethyl-4-[6-methyl-2-(2-methylpropylsulfanyl)pyrimidin-4-yl]oxyphenyl]-N-ethyl-N-methylmethanimidamide] | ≥ 70% | ≥ 70% | ≥ 70% | – | – | –
1.69 | – | – | – | CCN(C)C=Nc1cc(C)c(Oc2cc(C)nc(SC(C)C)n2)cc1C [I.022, N'-[2,5-dimethyl-4-(6-methyl-2-propan-2-ylsulfanylpyrimidin-4-yl)oxyphenyl]-N-ethyl-N-methylmethanimidamide] | ≥ 70% | ≥ 70% | ≥ 70% | – | – | –
1.99 | – | – | – | CCN(C)C=Nc1cc(C)c(Oc2cc(SC(C)(C)C)nc(C)n2)cc1C [I.023, N'-[4-(6-tert-butylsulfanyl-2-methylpyrimidin-4-yl)oxy-2,5-dimethylphenyl]-N-ethyl-N-methyl-methanimidamide] | ≥ 70% | ≥ 70% | ≥ 70% | – | – | –
2.02 | 5.98 | – | – | CCC(C)Sc1cc(Oc2cc(C)c(N=CN(C)CC)cc2C)nc(C)n1 (centres unmarked) [I.024, N'-[4-(6-butan-2-ylsulfanyl-2-methylpyrimidin-4-yl)oxy-2,5-dimethylphenyl]-N-ethyl-N-methyl-methanimidamide] | ≥ 70% | ≥ 70% | ≥ 70% | – | – | –
1.69 | – | – | – | CCN(C)C=Nc1cc(C(F)F)c(Oc2ccnc(SCC(C)C)n2)cc1C [I.025, N'-[5-(difluoromethyl)-2-methyl-4-[2-(2-methylpropylsulfanyl)pyrimidin-4-yl]oxyphenyl]-N-ethyl-N-methylmethanimidamide] | ≥ 70% | ≥ 70% | ≥ 70% | – | – | –
– | – | 1.27 | 4.12 | CCSc1nccc(Oc2cc(C)c(N=CN(C)CC)cc2C)n1 [I.027, N-ethyl-N'-[4-(2-ethylsulfanylpyrimidin-4-yl)oxy-2,5-dimethylphenyl]-N-methylmethanimid-amide] | – | – | – | at least 70% | at least 70% | at least 70%
1.45 | 4.54 | – | – | CCN(C)C=Nc1cc(C)c(Oc2ccnc(SC(C)C)n2)cc1C [I.028, N'-[2,5-dimethyl-4-(2-propan-2-ylsulfanylpyrimidin-4-yl)oxyphenyl]-N-ethyl-N-methylmethan-imidamide] | ≥ 70% | ≥ 70% | ≥ 70% | – | – | –
– | – | 1.46 | 4.61 | CCCSc1nccc(Oc2cc(C)c(N=CN(C)CC)cc2C)n1 [I.029, N'-[2,5-dimethyl-4-(2-propylsulfanylpyrimidin-4-yl)oxyphenyl]-N-ethyl-N-methylmethanimid-amide] | – | – | – | at least 70% | at least 70% | at least 70%
1.24 | 3.82 | – | – | CCN(C)C=Nc1cc(C)c(Oc2ccnc(C(F)(F)F)n2)cc1C [I.030, N'-[2,5-dimethyl-4-[2-(trifluoromethyl)pyrimidin-4-yl]oxyphenyl]-N-ethyl-N-methylmethan-imidamide] | ≥ 70% | ≥ 70% | ≥ 70% | – | – | –
1.52 | 4.37 | – | – | CCN(C)C=Nc1cc(C)c(Oc2ccnc(SCC(F)(F)F)n2)cc1C [I.031, N'-[2,5-dimethyl-4-[2-(2,2,2-trifluoroethylsulfanyl)pyrimidin-4-yl]oxyphenyl]-N-ethyl-N-methylmethanimidamide] | ≥ 70% | ≥ 70% | ≥ 70% | – | – | –
1.34 | 4.16 | – | – | CCN(C)C=Nc1cc(C)c(Oc2cc(C)nc(SC)n2)cc1C [I.033, N'-[2,5-dimethyl-4-(6-methyl-2-methylsulfanylpyrimidin-4-yl)oxyphenyl]-N-ethyl-N-methyl-methanimidamide] | ≥ 70% | ≥ 70% | ≥ 70% | – | – | –
